# How the values were obtained:
# 184A1 = assay: MTT cell viability assay; type: cell-based, human; details: normal mammary epithelial cells 184A1
# Procedure: (§1) (A) Cells were treated with indicated concentration of YC-1 for 6, 24, and 48 h. Cell viability was determined by MTT method. (B) MDA-MB-468 cells were treated with 3 μM YC-1 for 0, 6, and 12 h, and then stained with fluorescence diacetate (FDA) and propidium iodide (PI). Cell morphology was assessed by fluorescence microscopy with magnification ×20 (upper 3 rows) or ×40 (lowest row). (C) MDA-MB-468 cells were treated with 3 μM YC-1 for 24 h, cells were lysed and subjected to western blot analysis described in Materials and Methods. β-actin is a loading control. Blots were representative of results from three independent experiments. (D) Cells were treated with vehicle (DMSO, as control) or 3 μM YC-1 for 6 h. The cell cycles were analyzed by flow cytometry. (E) Cells were treated with indicated concentration of YC-1 and then performed with clonogenic assay.
# (§2) Human breast cancer cells, MDA-MB-468, MDA-MB-157, MDA-MB-231, MDA-MB-453, and Hs578T, and immortalized mammary epithelial cell lines, 184A1 and MCF-10A, were obtained from American Type Culture Collection (Manassas, Va., USA). MDA-MB-468, MDA-MB-157, MDA-MB-231, and MDA-MB-453 were cultured in DMEM/F12 medium supplemented with 10% FBS, 100 U/ml penicillin, and 100 μg/ml streptomycin. Hs578T was cultured in RPMI 1640 medium containing 10% FBS, 2 mM L-glutamine, 100 U/ml penicillin, and 100 μg/ml streptomycin. 184A1 and MCF-10A were cultured in DMEM/F12 medium supplemented with 5% horse serum, 0.5 μg/ml hydrocortisone, 10 μg/ml insulin, 20 ng/ml epidermal growth factor, 0.1 μg/ml cholera enterotoxin, 2 mM L-glutamine, 100 U/ml penicillin, and 100 μg/ml streptomycin. All cells were maintained in a humidified incubator containing 5% CO2. For hypoxia treatment, cells were incubated in a chamber flushed with 1% 02, 5% CO2, and 94% N2 at 37° C.
# (§3) Cell viability was measured by 3-(4,5-Dimethyl-2-thiazolyl)2,5-diphenyl-2H-tetrazolium bromide (MTT) assay.
# MCF-10A = assay: MTT cell viability assay; type: cell-based, human; details: normal mammary epithelial cells MCF-10A
# Procedure: as §1, §2, §3
# MDA-MB-468 = assay: MTT cell viability assay; type: cell-based, human; details: Homo sapiens, MDA-MB-468
# Procedure: as §1, §2, §3
# Hs578T = assay: MTT cell viability assay; type: cell-based, human
# Procedure: as §2, §3
# MDA-MB-157 = assay: MTT cell viability assay; type: cell-based, human
# Procedure: as §2, §3
# MDA-MB-231 = assay: MTT cell viability assay; type: cell-based, human; details: triple negative breast cancer cell line MDA-MB-231
# Procedure: as §2, §3
# MDA-MB-453 = assay: MTT cell viability assay; type: cell-based, human
# Procedure: as §2, §3
# MDA-MB-468 cells [1] = assay: Morphological analysis of apoptosis by fluorescent staining (FDA/PI); type: cell-based, human; details: 3 μM YC-1, after 6 h-treatment
# Procedure: as §1
# Vital and apoptotic cells were observed under staining with fluorescein diacetate (2 mg/ml) and propidium iodide (4 mg/ml) for 10 min. Cells were visualized and recorded on a LeicaDC300 microscope with digital camera.
# MDA-MB-468 cells [2] = assay: Cell cycle analysis by flow cytometry; type: cell-based, human; details: 3 μM YC-1, 6 h post-treatment
# Procedure: as §1
# Cells (1×10^6) treated with YC-1 were fixed in cold 70% ethanol overnight. Cells were stained with staining solution (0.5% Triton X-100, 2 mg/ml propidium iodide, 1 mg/ml RNase A in 1×PBS), followed by analysis on a FACSCalibur flow cytometer (BD Biosciences, Mountain View, Calif., USA).
# MDA-MB-468 cells [3] = assay: Colony formation (clonogenic) assay; type: cell-based, human
# Procedure: as §1
# After exposure to YC-1, cells were collected and washed extensively with PBS. Five hundred cells per well was seeded onto 6-well plates and maintained in a 37° C., 5% CO2 incubator. Three weeks later, colonies were fixed with formaldehyde (3.7%, v/v) and stained with crystal violet (0.5%, w/v), then counted.
# MDA-MB-468 xenograft = assay: MDA-MB-468 breast cancer xenograft animal model; type: in vivo, Nu/Nu mice
# Procedure: MDA-MB-468 cells were used to inoculate Nu/Nu mice. (A, left) Tumor bearing mice were given vehicle (10 μl DMSO, CTL) or YC-1 (30 and 60 mg/kg/day) by ip treatment. (B, right) Tumor bearing mice were given vehicle (normal saline, CTL) or YC-1-succinate (YC-1-S; 20, 40, and 80 mg/kg/day) by oral administration. During treatment period, tumor volume and body weights of mice were measured once per 3 days. Data are expressed as mean of tumor volume (mm^3)±S.E.M. from 6 mice (YC-1 treatment) or 10 mice (YC-1-S treatment). Tumor weights (B) and body weights of mice (C) in control and YC-1/YC-1-S-treated groups were recorded.
# Nu/Nu female mice (four weeks old) were from National Laboratory Animal Center, Taipei, Taiwan. Mice were maintained under procedures and guidelines from the Institutional Animal Care and Use of the National Health Research Institutes. MDA-MB-468 breast cancer cells (5×10^6 cells per mouse) were suspended in 0.1 ml of Matrigel solution (50%, v/v, Matrigel in 1×PBS) and inoculated into the mammary fat pads of nude mice. When the tumor masses reached to 100 mm^3, the tumor bearing mice were randomly divided into different groups for different dosage of YC-1 treatments. The mice were given by intraperitoneal injection with YC-1 or oral administration of YC-1-succinate. Tumor size and body weights of mice were measured once per 3 days and tumor volume (mm^3) was calculated as the equation: length×[…]. At the end of experiments, mice were sacrificed and tumor nodules were dissected and weighted. Tumor tissues were subjected to western blot analysis.
smiles,measurement,setting,value
"OCc1ccc(-c2nn(Cc3ccccc3)c3ccccc23)o1 [YC-1, 3-(5′-hydroxymethyl-2′-furyl)-1-benzyl indazole]",effect on cell viability,184A1,no effect
same,effect on cell viability,MCF-10A,no effect
same,IC50,MDA-MB-468; 24 h-incubation,620 ± 20 nM
same,IC50,MDA-MB-468; 48 h-incubation,290 ± 20 nM
same,effect on cell viability,Hs578T,no effect
same,effect on cell viability,MDA-MB-157,no effect
same,effect on cell viability,MDA-MB-231,slight inhibitory effect
same,effect on cell viability,MDA-MB-453,no effect
same,morphological changes (apoptosis),MDA-MB-468 cells [1],obviously morphological changes with apoptotic characteristics
same,sub-G1 population,MDA-MB-468 cells [2]; control 5.9%,13.5%
same,percentage of cells at the G1 phase,MDA-MB-468 cells [2]; control 57.2%,64.8%
same,clonogenic activity,MDA-MB-468 cells [3],potent ability in attenuation of tumor formation
same,tumor growth,MDA-MB-468 xenograft; 30 and 60 mg/kg by intraperitoneal injection,significantly inhibited the tumor growth
same,body weights of mice,MDA-MB-468 xenograft; 30 and 60 mg/kg/day ip,not affected
same,tumor weight,MDA-MB-468 xenograft; 30 and 60 mg/kg/day ip,dose-dependently reduced tumor weight

# — patent US20140357688A1, “METHOD FOR INHIBITING EZH2 EXPRESSION IN BREAST CANCER CELLS” (Yung Shin Pharm. Ind. Co., Ltd., priority 2013, published 2014)
